System: KRAS-mutant PDC multicell tumor spheroid viability
Assay: Anticancer human tumor 521955-158-R2-J5-PDC patient-derived pancreatic carcinoma cell line growth inhibition [KRAS2]
Details: for IC50: curve of first compound; for viability, T/C: stronger effect = lower value
Method in brief: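 Combination screen of spheroid viability in tumor-cell co-cultures with endothelial (HUVEC) and mesenchymal stem cell stroma. Each agent was tested in half-log dilutions, topping at clinical Cmax or at 10 microM without a known Cmax.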

[1] = second compound 0.1 µM, first compound 0.000316 µM
[2] = second compound 0.1 µM, first compound 0.001 µM
[3] = second compound 0.1 µM, first compound 0.00316 µM
[4] = second compound 0.1 µM, first compound 0.01 µM
[5] = second compound 0.1 µM, first compound 0.0316 µM
[6] = second compound 0.316 µM, first compound 0.000316 µM
[7] = second compound 0.316 µM, first compound 0.001 µM
[8] = second compound 0.316 µM, first compound 0.00316 µM
[9] = second compound 0.316 µM, first compound 0.01 µM
[10] = second compound 0.316 µM, first compound 0.0316 µM
[11] = second compound 1 µM, first compound 0.000316 µM
[12] = second compound 1 µM, first compound 0.001 µM
[13] = second compound 1 µM, first compound 0.00316 µM
[14] = second compound 1 µM, first compound 0.01 µM
[15] = second compound 1 µM, first compound 0.0316 µM
[16] = second compound 3.16 µM, first compound 0.000316 µM
[17] = second compound 3.16 µM, first compound 0.001 µM
[18] = second compound 3.16 µM, first compound 0.00316 µM
[19] = second compound 3.16 µM, first compound 0.01 µM
[20] = second compound 3.16 µM, first compound 0.0316 µM
[21] = second compound 10 µM, first compound 0.000316 µM
[22] = second compound 10 µM, first compound 0.001 µM
[23] = second compound 10 µM, first compound 0.00316 µM
[24] = second compound 10 µM, first compound 0.01 µM
[25] = second compound 10 µM, first compound 0.0316 µM
[26] = second compound 0.1 µM, first compound 0.1 µM
[27] = second compound 0.316 µM, first compound 0.1 µM
[28] = second compound 1 µM, first compound 0.1 µM
[29] = second compound 3.16 µM, first compound 0.1 µM
[30] = second compound 10 µM, first compound 0.1 µM
[31] = second compound 0.1 µM, first compound 0.316 µM
[32] = second compound 0.1 µM, first compound 1 µM
[33] = second compound 0.1 µM, first compound 3.16 µM
[34] = second compound 0.1 µM, first compound 10 µM
[35] = second compound 0.316 µM, first compound 0.316 µM
[36] = second compound 0.316 µM, first compound 1 µM
[37] = second compound 0.316 µM, first compound 3.16 µM
[38] = second compound 0.316 µM, first compound 10 µM
[39] = second compound 1 µM, first compound 0.316 µM
[40] = second compound 1 µM, first compound 1 µM
[41] = second compound 1 µM, first compound 3.16 µM
[42] = second compound 1 µM, first compound 10 µM
[43] = second compound 3.16 µM, first compound 0.316 µM
[44] = second compound 3.16 µM, first compound 1 µM
[45] = second compound 3.16 µM, first compound 3.16 µM
[46] = second compound 3.16 µM, first compound 10 µM
[47] = second compound 10 µM, first compound 0.316 µM
[48] = second compound 10 µM, first compound 1 µM
[49] = second compound 10 µM, first compound 3.16 µM
[50] = second compound 10 µM, first compound 10 µM
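Note: viability read after seven days of drug exposure.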

CC(=O)Nc1cccc(-n2c(=O)n(C3CC3)c(=O)c3c(Nc4ccc(I)cc4F)n(C)c(=O)c(C)c32)c1 + CNCc1ccccc1-c1csc(C(C)Nc2nc(C)nc3cc(OC)c(OC)cc23)c1
IC50 (second compound 0.1 µM): 0.252 nM
IC50 (second compound 0.316 µM): 0.285 nM
IC50 (second compound 1 µM): 0.312 nM
IC50 (second compound 3.16 µM): < 0.1 nM
IC50 (second compound 10 µM): < 0.1 nM
viability, T/C (second compound 0.1 µM, first compound 0.0001 µM): 70.5%
viability, T/C [1]: 44.9%
viability, T/C [2]: 28.5%
viability, T/C [3]: 27.1%
viability, T/C [4]: 20.9%
viability, T/C [5]: 15.9%
viability, T/C (second compound 0.316 µM, first compound 0.0001 µM): 69%
viability, T/C [6]: 43.6%
viability, T/C [7]: 38%
viability, T/C [8]: 26.3%
viability, T/C [9]: 22.2%
viability, T/C [10]: 14.1%
viability, T/C (second compound 1 µM, first compound 0.0001 µM): 81.5%
viability, T/C [11]: 39.6%
viability, T/C [12]: 35.7%
viability, T/C [13]: 24.5%
viability, T/C [14]: 7.75%
viability, T/C [15]: 2.12%
viability, T/C (second compound 3.16 µM, first compound 0.0001 µM): 1.11%
viability, T/C [16]: 0.2%
viability, T/C [17]: 1.26%
viability, T/C [18]: 0.11%
viability, T/C [19]: 0.95%
viability, T/C [20]: 0.19%
viability, T/C (second compound 10 µM, first compound 0.0001 µM): 0.21%
viability, T/C [21]: 0.24%
viability, T/C [22]: 0.18%
viability, T/C [23]: 0.4%
viability, T/C [24]: 2.28%
viability, T/C [25]: 0.26%

CN(C)C/C=C/C(=O)Nc1cc2c(Nc3ccc(F)c(Cl)c3)ncnc2cc1O[C@H]1CCOC1 + CNCc1ccccc1-c1csc(C(C)Nc2nc(C)nc3cc(OC)c(OC)cc23)c1
IC50 (second compound 0.1 µM): > 100 nM
IC50 (second compound 0.316 µM): > 100 nM
IC50 (second compound 1 µM): > 100 nM
IC50 (second compound 3.16 µM): 2.23 nM
IC50 (second compound 10 µM): < 0.316 nM
viability, T/C [1]: 107%
viability, T/C [2]: 104%
viability, T/C [3]: 93.3%
viability, T/C [4]: 91%
viability, T/C [5]: 88.9%
viability, T/C [26]: 77.3%
viability, T/C [6]: 110%
viability, T/C [7]: 93.5%
viability, T/C [8]: 81.1%
viability, T/C [9]: 92.6%
viability, T/C [10]: 98.5%
viability, T/C [27]: 64.4%
viability, T/C [11]: 113%
viability, T/C [12]: 120%
viability, T/C [13]: 100%
viability, T/C [14]: 100%
viability, T/C [15]: 97%
viability, T/C [28]: 97.7%
viability, T/C [16]: 114%
viability, T/C [17]: 116%
viability, T/C [18]: 0.23%
viability, T/C [19]: 0.26%
viability, T/C [20]: 85.9%
viability, T/C [29]: 1%
viability, T/C [21]: 0.27%
viability, T/C [22]: 0.27%
viability, T/C [23]: 0.18%
viability, T/C [24]: 0.16%
viability, T/C [25]: 0.23%
viability, T/C [30]: 0.24%

COC(=O)c1ccc2c(C(=Nc3ccc(N(C)C(=O)CN4CCN(C)CC4)cc3)c3ccccc3)c(O)[nH]c2c1 + CNCc1ccccc1-c1csc(C(C)Nc2nc(C)nc3cc(OC)c(OC)cc23)c1
IC50 (second compound 0.1 µM): 2260 nM
IC50 (second compound 0.316 µM): 1800 nM
IC50 (second compound 1 µM): 1960 nM
IC50 (second compound 3.16 µM): < 31.6 nM
IC50 (second compound 10 µM): < 31.6 nM
viability, T/C [5]: 87.3%
viability, T/C [26]: 111%
viability, T/C [31]: 103%
viability, T/C [32]: 123%
viability, T/C [33]: 26.9%
viability, T/C [34]: 1.42%
viability, T/C [10]: 90%
viability, T/C [27]: 101%
viability, T/C [35]: 100%
viability, T/C [36]: 107%
viability, T/C [37]: 2.22%
viability, T/C [38]: 0.15%
viability, T/C [15]: 97.1%
viability, T/C [28]: 103%
viability, T/C [39]: 115%
viability, T/C [40]: 95.3%
viability, T/C [41]: 17.5%
viability, T/C [42]: 0.14%
viability, T/C [20]: 0.52%
viability, T/C [29]: 0.17%
viability, T/C [43]: 0.16%
viability, T/C [44]: 0.15%
viability, T/C [45]: 0.07%
viability, T/C [46]: 0.59%
viability, T/C [25]: 0.14%
viability, T/C [30]: 0.13%
viability, T/C [47]: 0.13%
viability, T/C [48]: 0.13%
viability, T/C [49]: 0.12%
viability, T/C [50]: 0.19%

O=C(c1cc(Cc2n[nH]c(=O)c3ccccc23)ccc1F)N1CCN(C(=O)C2CC2)CC1 + CNCc1ccccc1-c1csc(C(C)Nc2nc(C)nc3cc(OC)c(OC)cc23)c1
IC50 (second compound 0.1 µM): > 10000 nM
IC50 (second compound 0.316 µM): > 10000 nM
IC50 (second compound 1 µM): > 10000 nM
IC50 (second compound 3.16 µM): < 31.6 nM
IC50 (second compound 10 µM): < 31.6 nM
viability, T/C [5]: 93.9%
viability, T/C [26]: 106%
viability, T/C [31]: 91%
viability, T/C [32]: 88.3%
viability, T/C [33]: 72.7%
viability, T/C [34]: 55.7%
viability, T/C [10]: 86.7%
viability, T/C [27]: 100%
viability, T/C [35]: 94.5%
viability, T/C [36]: 88.8%
viability, T/C [37]: 72.1%
viability, T/C [38]: 54.3%
viability, T/C [15]: 92.3%
viability, T/C [28]: 98.1%
viability, T/C [39]: 99.6%
viability, T/C [40]: 94.5%
viability, T/C [41]: 70.7%
viability, T/C [42]: 51.9%
viability, T/C [20]: 0.34%
viability, T/C [29]: 0.17%
viability, T/C [43]: 0.17%
viability, T/C [44]: 0.65%
viability, T/C [45]: 0.18%
viability, T/C [46]: 0.2%
viability, T/C [25]: 0.16%
viability, T/C [30]: 0.14%
viability, T/C [47]: 0.16%
viability, T/C [48]: 0.16%
viability, T/C [49]: 0.18%
viability, T/C [50]: 0.23%
